Data from patent US20040087553A1, “Hypoestoxides, derivatives and agonists thereof for use in the treatment and prophylaxis of hyperlipidemia” (Paraquest, Inc., priority 2002, published 2004).

Assay: Effect of oral hypoestoxide on blood cholesterol and triglyceride levels in a beagle dog (standard colorimetric method on sera)
Format: in vivo
Conditions: 30 mg/kg oral once daily for seven days; for Triglycerides / Cholesterol: dog serum; for Triglycerides: day −1 value 300; for Cholesterol: day −1 value 308
Experimental: In one example, hypoestoxide was administered orally to a 2-year-old female beagle dog at a dose of 30 mg/kg, once daily for seven days. Blood cholesterol and triglyceride levels were determined in sera obtained at days 1, 3, 7 and 14, respectively. Assays were performed by a standard colorimetric method by a commercial laboratory (Antech Diagnostics, Irvine, Calif.).

With `C=C1C(=O)C[C@H]2C[C@@H]3O[C@@]3(C)CC[C@@H]3O[C@@]3(C)C[C@@H](OC(C)=O)[C@H]1C2(C)C` [hypoestoxide] the “blood cholesterol and triglyceride levels (effect in words)” value (beagle dog) was “significantly lowered”, the Triglycerides (day 1, normal reference range 29-291) was 296 mg/dL and the Cholesterol (day 1, normal reference range 92-324) was 122 mg/dL. The Triglycerides (day 3) was 70 mg/dL, the Cholesterol (day 3) was 130 mg/dL and the Triglycerides (day 7) was 33 mg/dL. The Cholesterol (day 7) was 124 mg/dL, the Triglycerides (day 14) was 51 mg/dL and the Cholesterol (day 14) was 134 mg/dL.
